Reference: US10265294B2, “Compositions and methods for treating epithelial cancer” (YALE UNIVERSITY, priority 2016, dated 2019)

What was measured:
[1] = mouse, in vivo
Description: The Yale University Institutional Animal Care and Use Committee approved all in vivo studies described. Intra-peritoneal tumors were established in athymic nude mice using 4×10^6 mCherry+OCSC1-F2 ovarian cancer cells (Craveiro, et al., 2013, Cancer Med. 2:751-762). Injection of cancer cells is designated as day 0 and treatment commenced between day 3-5. Establishment of i.p. tumors was confirmed by live imaging (In-Vivo FX PRO, Bruker Corp., Billerica, Mass.) prior to treatment. TRX-E-002-1 was prepared in 20% Captisol or Dexsolve and administered daily at 50 mg/kg or 100 mg/kg. Paclitaxel was given at 12 mg/kg q3d and Cisplatin at 5 mg/kg weekly. All treatments were given i.p. Tumor growth was monitored q3d by live imaging and response to treatment was assessed using ROI area.
To determine activity against primary disease as well as to determine the maximum tolerated dose (MTD), a dose response study was performed. […] Animals however recovered from the distension upon cessation of treatment. […] Thus, the MTD was established at daily 100 mg/kg i.p. and this dose was employed for the succeeding studies employing combination treatment.

[2] = system: OCSCs (CD44+/MyD88+ ovarian cancer stem cells); test: OCSC growth, morphology, RFP+ cell count and Celltox cell death (kinetic live cell imaging); format: cell-based, human
Procedure: (§1) CD44+/MyD88+ ovarian cancer stem cell clones (OCSC1 and OCSC2) and CD44−/MyD88− ovarian cancer cells (OCC1 and OCC2) were isolated from either tumor tissue or ascites obtained from patients diagnosed with stage III/IV serous ovarian cancer and propagated (Alvero, et al., 2009, Cell Cycle 8:158-166; Chefetz, et al., 2013, Cell Cycle 12:511-521). The epithelial nature of the isolated cells was determined by immunostaining for Ck18. Purity of the cultures based on CD44 expression by flow cytometry and chemoresistance were routinely tested. Stable expression of nuclear-restricted red fluorescent (in OCSCs) or green fluorescent proteins (in OCCs) was performed by transduction using NUCLIGHT® Red or Green Lentivirus Reagent (Essen Bioscience, Ann Arbor, Mich.). Spheroids were formed from OCSCs by culturing in ultra-low attachment multi-well plates (Corning, Inc., Corning, N.Y.).
(§2) Effect of each compound on cell morphology, growth, and viability was assessed using a kinetic live cell imaging system (Incucyte, Essen Bioscience). Proliferation was calculated as previously described (Alvero, et al., 2011, Mol. Cancer Ther. 10:1385-1393) using metrics from either confluence or fluorescent count from nuclear-restricted RFP or GFP. Cell death was quantified; similarly CELLTOX® Green Cytotoxicity Assay (Promega, Madison, Wis.). IC50 was calculated as described using GraphPad Prism (GraphPad Software Inc., LaJolla, Calif.).
In vitro, conventional chemotherapeutic drugs had negligible effect on OCSC growth even in the μM range (FIG. 1B).
TRX-E-002 exists as a racemic mixture comprised of two enantiomers, enantiomer A (TRX-E-002-1) and enantiomer B (TRX-E-002-2). Thus, the enantiomers were separated and assessed separately. To distinguish between an analog's cytostatic or cytotoxic activity, OCSC clones that are stably transfected with nuclear-restricted RFP were used, which allows an accurate quantification of the number of cells and can be multiplexed with CELLTOX® assay to concomitantly measure the number of dead cells.

[3] = system: OCSC2 (chemoresistant CD44+/MyD88+ ovarian cancer stem cell clone); test: Real-time measurement of cell number/cell death and IC50, OCSC2 clone; format: cell-based, human; details: OCSC2, 24 hours (FIG. 1G)
Procedure: as §1, §2
A panel of four different SBP subfamilies with cytotoxic activity against chemoresistant ovarian cancer stem cells were tested for efficacy in inducing ovarian cancer stem cell death. […] The efficacy of each analog was determined based on its IC50.
TRX-E-002 exists as a racemic mixture comprised of two enantiomers, enantiomer A (TRX-E-002-1) and enantiomer B (TRX-E-002-2). Thus, the enantiomers were separated and assessed separately. […]

[4] = system: chemoresistant ovarian cancer stem cells; test: OCSC growth and morphology with TRX-E-002-1, AICAR or the combination; format: cell-based, human
Procedure: The effect of each compound on cell growth was assessed using a kinetic live cell imagine system (Incucyte, Essen Bioscience). Proliferation was determined based on either confluence or fluorescent count from nuclear-restricted RFP or GFP. The IC50 values were calculated using GraphPad Prism (GraphPad Software Inc., LaJolla, Calif.). […]

SMILES: COc1cc(C2COc3c(ccc(O)c3C)C2c2ccc(O)cc2)cc(OC)c1O (single isomer, unassigned) [TRX-E-002-1]
- toxicity at high concentrations in animal studies [1]: evidence of some potential toxicity
- maximum tolerated dose (MTD) ([1]; ip): 100 mg/kg
- number of nuclear RFP+ cells ([2]; RFP OCSC clones, TRX-E-002-1 beginning at the 0.245 μM dose, TRX-E-002-2 except for the very high dose of 10 μM): significant decrease
- number of Celltox-positive cells ([2]; beginning at the 0.245 μM dose): concomitant increase
- IC50 [3]: 47 nM
- cell morphology / apoptotic cells ([4]; 48 hours, AICAR at 0.2 mM): only minimal effect
- effect on cell growth ([4]; TRX-E-002-1 25 ng/ml, mono therapies or combination): minimal effect
